Experimental data published in US10597388B2, “Pyridazinone herbicides” (FMC CORPORATION, priority 2014, dated 2020).

Key:
Assay in all cases: Test E greenhouse herbicide test, pre- and postemergence
Format in all cases: in vivo
[1] = system: foxtail, green (green foxtail, Setaria viridis); details: Preemergence
Method in brief: (§1)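 Seedlings reaching 2–18 cm (1- to 4-leaf stage) received foliar treatment, while seeds in silt loam received a soil surface spray; the vehicle in each case was a non-phytotoxic solvent mixture including surfactant. Visual scoring versus controls followed 14–21 d later on a 0–100 scale.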

kochia (Kochia scoparia) = system: kochia (Kochia scoparia)
Method in brief: as §1

[2] = system: Italian ryegrass (Lolium multiflorum)
Method in brief: as §1

[3] = system: sandbur (southem sandbur, Cenchrus echinatus)
Method in brief: as §1

[4] = system: lambsquarters (Chenopodium album); details: Preemergence
Method in brief: as §1

[5] = system: nutsedge, yellow (yellow nutsedge, Cyperus esculentus); details: Preemergence
Method in brief: as §1

[6] = system: barnyardgrass (Echinochloa crus-galli)
Method in brief: as §1

[7] = system: beggarticks (hairy beggarticks, Bidens pilosa)
Method in brief: as §1

soybean (Glycine max) = system: soybean (Glycine max)
Method in brief: as §1

[8] = system: panicum, fall (fall panicum, Panicum dichotomiflorum)
Method in brief: as §1

[9] = 62 g ai/ha, scale 0 to 100 (0 no effect, 100 complete control)
[10] = 125 g ai/ha, scale 0 to 100 (0 no effect, 100 complete control)
[11] = 31 g ai/ha, scale 0 to 100, 0 no effect, 100 complete control
[12] = 250 g ai/ha, visual, scale 0 no effect to 100 complete control
[13] = 62 g ai/ha, Postemergence, scale 0 to 100 (0 no effect, 100 complete control)
[14] = 62 g ai/ha, Preemergence, scale 0 to 100 (0 no effect, 100 complete control)
[15] = 125 g ai/ha, Postemergence, scale 0 to 100 (0 no effect, 100 complete control)
[16] = 125 g ai/ha, Preemergence, scale 0 to 100 (0 no effect, 100 complete control)
[17] = 250 g ai/ha, Postemergence, scale 0 to 100 (0 no effect, 100 complete control)
[18] = Postemergence, 31 g ai/ha, visual, scale 0 no effect to 100 complete control
[19] = Preemergence, 31 g ai/ha, scale 0 to 100, 0 no effect, 100 complete control
[20] = Preemergence, 250 g ai/ha, visual, scale 0 no effect to 100 complete control
[21] = 125 g ai/ha, visual, scale 0 no effect to 100 complete control
[22] = Preemergence, 125 g ai/ha, visual, scale 0 no effect to 100 complete control

COC(=O)Oc1c(C)nn(C)c(=O)c1-c1c(C)sc2c(C)cc(C)cc12 [Compound 81]
Plant response rating, Foxtail, Green [1, 9]: 70 | Plant response rating, Foxtail, Green [1, 10]: 95 | Plant response rating, Foxtail, Green [1, 11]: 20 | Plant response rating, Foxtail, Green [1, 12]: 100 | Plant response rating, Kochia (kochia (Kochia scoparia); [13]): 70 | Plant response rating, Kochia (kochia (Kochia scoparia); [14]): 20 | Plant response rating, Kochia (kochia (Kochia scoparia); [15]): 70 | Plant response rating, Kochia (kochia (Kochia scoparia); [16]): 35 | Plant response rating, Kochia (kochia (Kochia scoparia); [17]): 75 | Plant response rating, Kochia (kochia (Kochia scoparia); [18]): 60 | Plant response rating, Kochia (kochia (Kochia scoparia); [19]): 0 | Plant response rating, Kochia (kochia (Kochia scoparia); [20]): 100 | Plant response rating, Ryegrass, Italian [2, 13]: 70 | Plant response rating, Ryegrass, Italian [2, 14]: 95 | Plant response rating, Ryegrass, Italian [2, 15]: 75 | Plant response rating, Ryegrass, Italian [2, 16]: 90 | Plant response rating, Ryegrass, Italian [2, 17]: 80 | Plant response rating, Ryegrass, Italian [2, 18]: 50 | Plant response rating, Ryegrass, Italian [2, 19]: 75 | Plant response rating, Ryegrass, Italian [2, 20]: 100 | Plant response rating, Sandbur [3, 14]: 40 | Plant response rating, Sandbur [3, 15]: 70 | Plant response rating, Sandbur [3, 16]: 70 | Plant response rating, Sandbur [3, 17]: 75 | Plant response rating, Sandbur [3, 18]: 60 | Plant response rating, Sandbur [3, 19]: 10 | Plant response rating, Sandbur [3, 20]: 90 | Plant response rating, Lambsquarters [4, 9]: 100 | Plant response rating, Lambsquarters [4, 10]: 100 | Plant response rating, Lambsquarters [4, 11]: 98 | Plant response rating, Lambsquarters [4, 12]: 100 | Plant response rating, Nutsedge, Yellow [5, 9]: 30 | Plant response rating, Nutsedge, Yellow [5, 10]: 80 | Plant response rating, Nutsedge, Yellow [5, 11]: 35 | Plant response rating, Nutsedge, Yellow [5, 12]: 90 | Plant response rating, Barnyardgrass [6, 13]: 20 | Plant response rating, Barnyardgrass [6, 14]: 25 | Plant response rating, Barnyardgrass [6, 15]: 30 | Plant response rating, Barnyardgrass [6, 16]: 35 | Plant response rating, Barnyardgrass [6, 17]: 50 | Plant response rating, Barnyardgrass [6, 18]: 20 | Plant response rating, Barnyardgrass [6, 19]: 0 | Plant response rating, Barnyardgrass [6, 20]: 75 | Plant response rating, Beggarticks [7, 13]: 100 | Plant response rating, Beggarticks [7, 14]: 100 | Plant response rating, Beggarticks [7, 15]: 100 | Plant response rating, Beggarticks [7, 16]: 100 | Plant response rating, Beggarticks [7, 17]: 100 | Plant response rating, Beggarticks [7, 18]: 90 | Plant response rating, Beggarticks [7, 19]: 80 | Plant response rating, Beggarticks [7, 20]: 100 | Plant response rating, Soybean (soybean (Glycine max); [14]): 0 | Plant response rating, Soybean (soybean (Glycine max); [15]): 0 | Plant response rating, Soybean (soybean (Glycine max); [16]): 0 | Plant response rating, Soybean (soybean (Glycine max); [17]): 10 | Plant response rating, Soybean (soybean (Glycine max); [18]): 0 | Plant response rating, Soybean (soybean (Glycine max); [19]): 0 | Plant response rating, Soybean (soybean (Glycine max); [20]): 0 | Plant response rating, Panicum, Fall [8, 13]: 80 | Plant response rating, Panicum, Fall [8, 14]: 100 | Plant response rating, Panicum, Fall [8, 15]: 85 | Plant response rating, Panicum, Fall [8, 16]: 100 | Plant response rating, Panicum, Fall [8, 17]: 90 | Plant response rating, Panicum, Fall [8, 18]: 85 | Plant response rating, Panicum, Fall [8, 19]: 98 | Plant response rating, Panicum, Fall [8, 20]: 100

Cc1ccc2ccccc2c1-c1c(O)c(C)nn(C)c1=O [Compound 59]
Plant response rating, Foxtail, Green [1, 9]: 90 | Plant response rating, Foxtail, Green [1, 11]: 65 | Plant response rating, Foxtail, Green [1, 21]: 95 | Plant response rating, Foxtail, Green [1, 12]: 100 | Plant response rating, Kochia (kochia (Kochia scoparia); [14]): 90 | Plant response rating, Kochia (kochia (Kochia scoparia); [19]): 80 | Plant response rating, Kochia (kochia (Kochia scoparia); [22]): 100 | Plant response rating, Kochia (kochia (Kochia scoparia); [20]): 100 | Plant response rating, Ryegrass, Italian [2, 14]: 100 | Plant response rating, Ryegrass, Italian [2, 16]: 100 | Plant response rating, Ryegrass, Italian [2, 19]: 100 | Plant response rating, Ryegrass, Italian [2, 20]: 100 | Plant response rating, Sandbur [3, 14]: 70 | Plant response rating, Sandbur [3, 16]: 90 | Plant response rating, Sandbur [3, 19]: 70 | Plant response rating, Sandbur [3, 20]: 90 | Plant response rating, Lambsquarters [4, 9]: 100 | Plant response rating, Lambsquarters [4, 11]: 100 | Plant response rating, Lambsquarters [4, 21]: 100 | Plant response rating, Lambsquarters [4, 12]: 100 | Plant response rating, Nutsedge, Yellow [5, 9]: 35 | Plant response rating, Nutsedge, Yellow [5, 10]: 75 | Plant response rating, Nutsedge, Yellow [5, 11]: 50 | Plant response rating, Nutsedge, Yellow [5, 12]: 70 | Plant response rating, Barnyardgrass [6, 14]: 25 | Plant response rating, Barnyardgrass [6, 19]: 0 | Plant response rating, Barnyardgrass [6, 22]: 60 | Plant response rating, Barnyardgrass [6, 20]: 90 | Plant response rating, Beggarticks [7, 14]: 100 | Plant response rating, Beggarticks [7, 19]: 100 | Plant response rating, Beggarticks [7, 22]: 100 | Plant response rating, Beggarticks [7, 20]: 100 | Plant response rating, Soybean (soybean (Glycine max); [14]): 30 | Plant response rating, Soybean (soybean (Glycine max); [16]): 30 | Plant response rating, Soybean (soybean (Glycine max); [19]): 35 | Plant response rating, Soybean (soybean (Glycine max); [20]): 70 | Plant response rating, Panicum, Fall [8, 14]: 98 | Plant response rating, Panicum, Fall [8, 16]: 100 | Plant response rating, Panicum, Fall [8, 19]: 95 | Plant response rating, Panicum, Fall [8, 20]: 100

CCOC(=O)Oc1c(C)nn(C)c(=O)c1-c1c(CC)ccc2ccccc12 [Compound 37]
Plant response rating, Foxtail, Green [1, 9]: 60 | Plant response rating, Foxtail, Green [1, 11]: 0 | Plant response rating, Foxtail, Green [1, 21]: 65 | Plant response rating, Foxtail, Green [1, 12]: 80 | Plant response rating, Kochia (kochia (Kochia scoparia); [14]): 0 | Plant response rating, Kochia (kochia (Kochia scoparia); [19]): 0 | Plant response rating, Kochia (kochia (Kochia scoparia); [22]): 0 | Plant response rating, Kochia (kochia (Kochia scoparia); [20]): 65 | Plant response rating, Ryegrass, Italian [2, 14]: 95 | Plant response rating, Ryegrass, Italian [2, 16]: 100 | Plant response rating, Ryegrass, Italian [2, 19]: 85 | Plant response rating, Ryegrass, Italian [2, 20]: 100 | Plant response rating, Sandbur [3, 14]: 35 | Plant response rating, Sandbur [3, 16]: 50 | Plant response rating, Sandbur [3, 19]: 20 | Plant response rating, Sandbur [3, 20]: 65 | Plant response rating, Lambsquarters [4, 9]: 100 | Plant response rating, Lambsquarters [4, 11]: 100 | Plant response rating, Lambsquarters [4, 21]: 98 | Plant response rating, Lambsquarters [4, 12]: 100 | Plant response rating, Nutsedge, Yellow [5, 9]: 0 | Plant response rating, Nutsedge, Yellow [5, 10]: 65 | Plant response rating, Nutsedge, Yellow [5, 11]: 0 | Plant response rating, Nutsedge, Yellow [5, 12]: 70 | Plant response rating, Barnyardgrass [6, 14]: 0 | Plant response rating, Barnyardgrass [6, 19]: 0 | Plant response rating, Barnyardgrass [6, 22]: 0 | Plant response rating, Barnyardgrass [6, 20]: 30 | Plant response rating, Beggarticks [7, 14]: 98 | Plant response rating, Beggarticks [7, 19]: 80 | Plant response rating, Beggarticks [7, 22]: 98 | Plant response rating, Beggarticks [7, 20]: 100 | Plant response rating, Soybean (soybean (Glycine max); [14]): 0 | Plant response rating, Soybean (soybean (Glycine max); [19]): 0 | Plant response rating, Soybean (soybean (Glycine max); [20]): 0 | Plant response rating, Panicum, Fall [8, 14]: 100 | Plant response rating, Panicum, Fall [8, 16]: 100 | Plant response rating, Panicum, Fall [8, 19]: 90 | Plant response rating, Panicum, Fall [8, 20]: 100
